US7534426B2, “Glutenase enzyme assays” (The Board of Trustees of the Leland Stanford Junior …, priority 2004, dated 2009)
Read-outs that look alike come from different tables or passages of the source. Ends that are not written are not given here.

B1: PEP: Flavobacterium meningosepticum prolyl endopeptidase, purchased or prepared from recombinant E. coli (protein, UniProt P27028 21-705, looked up)
Prolyl endopeptidase: QNSNVLKYPETKKVSHTDTYFGTQVSDPYRWLEDDRAEDTKAWVQQEVKFTQDYLAQIPFRDQLKKQLMDIWNYEKISAPFKKGKYTYFSKNDGLQAQSVLYRKDAAGKTEVFLDPNKFSEKGTTSLASVSFNKKGTLVAYSISEGGSDWNKIIILDAETKKQLDETLLDVKFSGISWLGDEGFFYSSYDKPKEGSVLSGMTDKHKVYFHKLGTKQSQDELIIGGDKFPRRYIGAYVTDDQRYLVVSAANATNGNELYIKDLKNKTDFIPIITGFDSNVNVADTDGDTLYLFTDKDAPNKRLVKTTIQNPKAETWKDVIAETSEPLEINTGGGYFFATYMKDAIDQVKQYDKNGKLVRAIKLPGSGNASGFGGEKTEKDLYYSFTNYITPPTIFKYNVTTGNSEVYQKPKVKFNPENYVSEQVFYTSSDGTKIPMMISYKKGLKKDGKNPTILYSYGGFNISLQPAFSVVNAIWMENGGIYAVPNIRGGGEYGKKWHDAGTKMQKKNVFNDFIAAGEYLQKNGYTSKEYMALSGRSNGGLLVGATMTMRPDLAKVAFPGVGVLDMLRYNKFTAGAGWAYDYGTAEDSKEMFEYLKSYSPVHNVKAGTCYPSTMVITSDHDDRVVPAHSFKFGSELQAKQSCKNPILIRIETNAGHGAGRSTEQVVAENADLLSFALYEMGIKSLK

Assays:
[1] = In vitro digestion of gliadin peptides with gastric and pancreatic enzymes (PTCtCE); format: in vitro ADME; details: pH 7.04
Procedure: (§1) In vitro Digestion of Gliadin Peptides. The in vitro digestion of each peptide was performed as follows: 75 μM (final concentration) of peptide was combined with 32 μL of 0.03 M HCl, pepsin (1:100 w pepsin/w peptide) and water to give a volume of 104 μL. The reaction was carried out for 30 minutes at 37° C. and was stopped by the addition of 40 μL of 1M sodium phosphate/sodium bisphosphate (pH 7.04). Chymotrypsin (1:100 w/w), trypsin (1:100.7 w/w), elastase (1:200 w/w), and carboxypeptidase A (1:100 w/w) were then added to give a final reaction volume of 168 μL. The reaction mixture was incubated at 37° C. for the indicated time and then stopped by heating at 90° C. for 5 minutes. Alternatively, the peptide ([…]) was combined with rat intestinal brush border enzymes, where the final concentration of brush border aminopeptidase N was 100 μU/μL. The rat intestinal brush border was prepared as described (Ahnen et al., 1982) and the activity was measured by assaying continuously at 30° C. in 0.1 M Tris HCl, pH 8.0, containing 1 mM Leu-pNA [extinction coefficient at 410 nm (ε410)=8,800 M^−1/cm^−1] in 1% dimethyl sulfoxide to improve solubility. In some reactions prolyl endopeptidase was also added at a final concentration of 100 μU/μL. The reaction mixture was analyzed by reverse phase HPLC on a Vydac 218MS54 column (4.6 mm inner diameter×15 cm).
(§2) Digestive resistance of gliadin peptides and effect of PEP. The gliadin peptides P2-P8 (Table 1) were incubated with pepsin, trypsin, chymotrypsin, carboxypeptidase A, and elastase (PTCtCE) and purified rat intestinal brush border membranes (BBM) as previously detailed (Shan et al., 2002) to assess their resistance to digestion. […] Peptides P2, P3, P5 contain one or more epitopes from α-gliadin, whereas P7 and P8 carry γ-gliadin epitopes. P4 is believed to stimulate the innate immune system, and P6 has macrophage stimulating activity.

[2] = In vitro digestion of gliadin peptides with brush border membranes; format: in vitro ADME, rat
Procedure: as §1, §2

[3] = In vitro digestion with brush border membranes supplemented with PEP; format: in vitro ADME; details: rat, kidney or brush border membranes, BBM plus 100 μU/μL PEP, 37° C.
Procedure: as §1, with “The rat intestinal brush border was prepared as described (Ahnen et al., 1982) and the activity was measured by assaying continuously at 30° C. in 0.1 M Tris HCl, pH 8.0, containing 1 mM Leu-pNA [extinction coefficient at 410 nm (ε410)=8,800 M^−1/cm^−1] in 1% dimethyl sulfoxide to improve solubility. In some reactions prolyl endopeptidase was also added at a final concentration of 100 μU/μL.” left out
Given the stability of gliadin peptides to intestinal peptidases and initial results indicating PEP is active against α-gliadin epitopes, the efficacy of in vitro digestion with PEP was examined. To quantify the incremental effect of PEP, we incubated the gliadin peptides with purified brush border membranes, supplemented with 100 μU/μL of PEP for 1 or 4 hours at 37° C.

[4] = test system: intact rat intestine co-perfused with prolyl endopeptidase (PEP); format: in vivo, Sprague-Dawley rats; details: co-perfused with 50 μM P5; ~190 μU/μL; ca. 1:5 weight ratio PEP:P5
Text: In vivo Rat Intestinal Perfusion. Our procedure for in vivo intestinal perfusion of peptides in rats was modified from the Smithson and Gray procedure as follows: Sprague-Dawley rats, 250-350 g were anesthetized with isoflurane, the abdomen opened, the ligament of Treitz (duodenal-jejunal junction) identified and polyethylene catheters [2.5 mm outer diameter×1 mm inner diameter] were installed with the proximal infusion catheter placed 5 cm beyond the ligament of Treitz and the collection catheter positioned 20 cm distally. Animal core temperature was monitored to be at 37° C. by rectal thermometer. Peptides for intra-intestinal perfusion were 1 mM GLGG, 0.1 mM P3, 0.1 mM P4, 0.1 mM P5, 0.1 mM P8, 0.1 mM P9, and 0.1 mM P10. […]
In a separate experiment, pepsin, trypsin and chymotrypsin digested gliadin (Sigma, St. Louis, Mo.) was perfused at 2 mg/mL along with 0.05 mM P5 and 41.7 […] PEP (˜190 μU/μL) to determine the effect of smaller, more accessible peptide fragments on P5 digestion. The perfusion effluent was collected, immediately frozen and subsequently analyzed by reverse phase HPLC on a Vydac 218MS54 column (4.6 mm inner diameter×15 cm). The rate of substrate disappearance for the peptides was calculated as previously detailed (Smithson and Gray, 1977). […]

| Molecule | metabolised at 1 h, 75 µM [2] | metabolised at 4 h, 75 µM [2] | metabolised at 4 h, 75 µM [1] | other results |
| --- | --- | --- | --- | --- |
| FLQPQQPFPQQPQQPYPQQPQQPFPQ [Peptide P8] |  |  |  | metabolised at 4 h, 75 µM ([1]; 75 μM peptide, 37° C., 4 hr, NR = no reaction, read-out: percentage of parent material digested, PTCtCE 4 hr): 13%; metabolised at 4 h, 75 µM ([2]; rat, kidney or brush border membranes, 75 μM peptide, aminopeptidase N 100 μU/μL, 4 hr, read-out: percentage of parent material digested, BBM 4 hr): 19%; remaining at 4 h, 75 µM ([2]; rat, kidney or brush border membranes, 4 hours, read-out: starting material remaining after BBM exposure): ~70%; metabolised at 1 h, 75 µM ([3]; 1 hr, read-out: percentage of parent material digested, BBM + PEP 1 hr): > 99%; metabolised at 4 h, 75 µM ([3]; 4 hr, read-out: percentage of parent material digested, BBM + PEP 4 hr): > 99% |
| LGQQQPFPPQQPYPQPQPF [Peptide P4, LGQQQPFPPQQPYPQPQPF] | 77% | 98% |  |  |
| LQLQPFPQPQLPYPQPQLPYPQPQLPYPQPQPF [Peptide P5] | 20% | 28% | 10% | remaining at 4 h, 75 µM ([2]; rat, kidney or brush border membranes): ~70% |
| QLQPFPQPQLPY [Peptide P2, QLQPFPQPQLPY] | 71% | 94% | 1% |  |
| VSFQQPQQQYPSSQ [Peptide P6, VSFQQPQQQYPSSQ] | 97% | 99% | 48% |  |
| B1 |  |  |  | amount of PEP required to eliminate P5 under the perfusion conditions [4]: 41.7 µg/mL |
